Laboratory results reported in ChEMBL document CHEMBL1201862, “PubChem BioAssay data set” (2004).
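Exposure lasted 48 hours, with cells grown in 96-well plates and compounds tested at five concentrations. The concentration for 50% growth inhibition is given as GI50.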 Calls of active or inactive are those of the source. No stated cut-off is given here; in the data, active = GI50 up to about 1.1 µM and inactive = higher.

Legend:
Test in all cases: inhibition of tumour cell growth, NCI panel, 48 h
HCT-116 = test system: HCT-116
HOP-92 = test system: HOP-92
UACC-62 = test system: UACC-62
A549 = test system: A549
MCF7 = test system: MCF7
MDA-MB-435 = test system: MDA-MB-435
ACHN = test system: ACHN
OVCAR-4 = test system: OVCAR-4
RPMI-8226 = test system: RPMI-8226
NCI-H522 = test system: NCI-H522
OVCAR-3 = test system: OVCAR-3
MDA-MB-231 = test system: MDA-MB-231
OVCAR-8 = test system: OVCAR-8
K562 = test system: K562
M14 = test system: M14
T47D = test system: T47D
EKVX = test system: EKVX
CCRF-CEM = test system: CCRF-CEM
HL-60 = test system: HL-60

| Compound | GI50 (HCT-116) | GI50 (HOP-92) | GI50 (UACC-62) | GI50 (A549) | GI50 (MCF7) | GI50 (MDA-MB-435) | GI50 (ACHN) | GI50 (OVCAR-4) | GI50 (RPMI-8226) | GI50 (NCI-H522) | GI50 (OVCAR-3) | GI50 (MDA-MB-231) | GI50 (OVCAR-8) | GI50 (K562) | GI50 (M14) | GI50 (T47D) | GI50 (EKVX) | GI50 (CCRF-CEM) | GI50 (HL-60) |
| --- | --- | --- | --- | --- | --- | --- | --- | --- | --- | --- | --- | --- | --- | --- | --- | --- | --- | --- | --- |
| COc1ccc(-[n+]2nc(S(=O)(=O)O)c(/C=C/c3ccc(N(C)C)cc3)cc2C#N)cc1 | > 100 µM (inactive) | > 100 µM (inactive) | > 100 µM (inactive) | > 100 µM (inactive) | > 100 µM (inactive) | > 100 µM (inactive) | > 100 µM (inactive) | > 100 µM (inactive) | > 100 µM (inactive) | > 100 µM (inactive) | > 100 µM (inactive) | > 100 µM (inactive) | > 100 µM (inactive) | > 100 µM (inactive) | > 100 µM (inactive) | > 100 µM (inactive) | > 100 µM (inactive) | > 100 µM (inactive) |  |
| O=C1N[C@@H]2c3c(csc3Br)C(=O)[C@@H]2O1 | 27.8 µM (inactive) | 20.8 µM (inactive) | 34.1 µM (inactive) | 51.9 µM (inactive) | 32.6 µM (inactive) | 19.9 µM (inactive) | 37.2 µM (inactive) |  | 26.9 µM (inactive) | 30.1 µM (inactive) | 20.7 µM (inactive) | 43.7 µM (inactive) | 22.2 µM (inactive) | 21.5 µM (inactive) | 37.3 µM (inactive) | 28.8 µM (inactive) | 30.4 µM (inactive) | 15 µM (inactive) | 24.3 µM (inactive) |
| CC1=CC[C@@]2(C)CC[C@](O)(C(C)C)C2C(OC(=O)c2ccccc2)C1 (stereo partly drawn) | 17.3 µM (inactive) | 15.1 µM (inactive) |  | 15.6 µM (inactive) | 17.9 µM (inactive) | 36.1 µM (inactive) | 17.8 µM (inactive) | 25 µM (inactive) | 16 µM (inactive) | 16.5 µM (inactive) | 17.5 µM (inactive) | 17.9 µM (inactive) | 19.4 µM (inactive) | 19.5 µM (inactive) | 18.7 µM (inactive) | 20.1 µM (inactive) | 15.5 µM (inactive) | 23 µM (inactive) | 28.9 µM (inactive) |
| CC(=O)Nc1ccc(Nc2nc(=O)[nH]c(=O)[nH]2)cc1 | > 100 µM (inactive) | > 100 µM (inactive) | > 100 µM (inactive) | > 100 µM (inactive) | > 100 µM (inactive) | > 100 µM (inactive) | > 100 µM (inactive) | > 100 µM (inactive) | > 100 µM (inactive) | > 100 µM (inactive) | > 100 µM (inactive) | > 100 µM (inactive) | > 100 µM (inactive) |  | > 100 µM (inactive) | > 100 µM (inactive) | > 100 µM (inactive) | > 100 µM (inactive) | > 100 µM (inactive) |
| COc1cc2c(cc1OC(=O)c1cc3ccccc3[nH]1)N=C[C@@H]1CCCN1C2=O | 0.41 µM (active) | 0.542 µM (active) | 0.269 µM (active) | 0.662 µM (active) | 0.397 µM (active) | 0.316 µM (active) | 0.244 µM (active) | 0.409 µM (active) | 0.334 µM (active) | 0.157 µM (active) | 0.296 µM (active) | 0.418 µM (active) | 0.462 µM (active) | 0.306 µM (active) | 0.18 µM (active) | 0.851 µM (active) | 0.841 µM (active) | 0.255 µM (active) |  |
| Cc1cc(S(=O)(=O)NC2=Nc3cccc(F)c3CN2)c(S)cc1Cl | 38.7 µM (inactive) | > 100 µM (inactive) | 62.1 µM (inactive) | 35.2 µM (inactive) | 61.7 µM (inactive) | 68.9 µM (inactive) | 66.4 µM (inactive) | 68.1 µM (inactive) | 24.8 µM (inactive) | 52.6 µM (inactive) | 63 µM (inactive) | > 100 µM (inactive) | 61 µM (inactive) |  | 40 µM (inactive) | 28.1 µM (inactive) | 75 µM (inactive) | 57.4 µM (inactive) | 96.8 µM (inactive) |
| COc1ccc(C(=O)/C=C/c2ccncc2)cc1OC | 6.44 µM (inactive) | 14.1 µM (inactive) | 15.5 µM (inactive) | 15.7 µM (inactive) | 3.74 µM (inactive) | 14.8 µM (inactive) | 14.9 µM (inactive) | 11 µM (inactive) |  | 7.73 µM (inactive) | 6.27 µM (inactive) | 12 µM (inactive) | 15.3 µM (inactive) | 2.31 µM (inactive) | 14.7 µM (inactive) | 12.6 µM (inactive) | 16.7 µM (inactive) | 4.02 µM (inactive) | 2.04 µM (inactive) |
| CCCCc1cc2c(C)cc(=O)oc2c(O)c1O | 30.5 µM (inactive) | 19.4 µM (inactive) |  | 33.2 µM (inactive) | 21.4 µM (inactive) | 30.6 µM (inactive) | 33 µM (inactive) | 32.1 µM (inactive) | 17.5 µM (inactive) | 21.5 µM (inactive) | 29.1 µM (inactive) | 13.6 µM (inactive) | 31.6 µM (inactive) | 27.4 µM (inactive) | 31.6 µM (inactive) | 21.7 µM (inactive) | 52.8 µM (inactive) | 21.3 µM (inactive) | 18.1 µM (inactive) |
| Cc1cc2c(=O)[nH]nc(N)c2c(N)n1 | > 100 µM (inactive) | > 100 µM (inactive) | > 100 µM (inactive) | > 100 µM (inactive) | > 100 µM (inactive) | > 100 µM (inactive) | > 100 µM (inactive) | > 100 µM (inactive) | > 100 µM (inactive) | > 100 µM (inactive) |  | > 100 µM (inactive) | > 100 µM (inactive) | > 100 µM (inactive) | > 100 µM (inactive) | > 100 µM (inactive) | > 100 µM (inactive) | > 100 µM (inactive) | > 100 µM (inactive) |
| COc1cc2c(cc1OS(C)(=O)=O)N=C[C@@H]1CCCN1C2=O | > 100 µM (inactive) | > 100 µM (inactive) | > 100 µM (inactive) | > 100 µM (inactive) | > 100 µM (inactive) | > 100 µM (inactive) | > 100 µM (inactive) | > 100 µM (inactive) | > 100 µM (inactive) | > 100 µM (inactive) | > 100 µM (inactive) | > 100 µM (inactive) | > 100 µM (inactive) |  | > 100 µM (inactive) | > 100 µM (inactive) | > 100 µM (inactive) | 72.3 µM (inactive) | > 100 µM (inactive) |
| Cc1cn(CCCCCCC2=NCCCN2)c(=O)[nH]c1=O | > 100 µM (inactive) | > 100 µM (inactive) | > 100 µM (inactive) | > 100 µM (inactive) | > 100 µM (inactive) | > 100 µM (inactive) | > 100 µM (inactive) | > 100 µM (inactive) | > 100 µM (inactive) | > 100 µM (inactive) | > 100 µM (inactive) | > 100 µM (inactive) | > 100 µM (inactive) | > 100 µM (inactive) | > 100 µM (inactive) | > 100 µM (inactive) | > 100 µM (inactive) | > 100 µM (inactive) |  |
